Measurements published in ChEMBL document CHEMBL4825748, “Rapid Evaluation of Small Molecule Cellular Target Engagement with a Luminescent Thermal Shift Assay” (ACS Med Chem Lett, 2021).
The source made the active and inactive calls. No cut-off for these calls is given here.

How the values were obtained:
[1] = biological target: T1, 5'-AMP-activated protein kinase subunit beta-1 (Homo sapiens) (UniProt Q9Y478); assay: Binding affinity to HiBiT-tagged PRKAB1 (unknown origin) assessed as shift in melting/aggregation temperature by luminescence based BiTSA assay
T1 sequence (whole entry): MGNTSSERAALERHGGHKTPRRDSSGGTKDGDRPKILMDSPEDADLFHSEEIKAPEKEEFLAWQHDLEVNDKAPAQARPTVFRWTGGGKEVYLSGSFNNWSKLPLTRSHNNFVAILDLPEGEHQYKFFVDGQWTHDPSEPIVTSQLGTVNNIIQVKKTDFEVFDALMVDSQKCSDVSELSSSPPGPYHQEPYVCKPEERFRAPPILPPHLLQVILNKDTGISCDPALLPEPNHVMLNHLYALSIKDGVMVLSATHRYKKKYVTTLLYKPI

[2] = biological target: Mitogen-activated protein kinase 14 (Homo sapiens) (UniProt Q16539); assay: Binding affinity to HiBiT-tagged MAPK14 (unknown origin) assessed as shift in melting/aggregation temperature at 10 uM by luminescence based BiTSA assay
[3] = system: Cellular tumor antigen p53 (Homo sapiens), P04637 [R273H]; assay: Binding affinity to HiBiT-tagged p53 R273H mutant in human MDA-MB-468 cells assessed as p53 refolding by measuring change in melting temperature at 25 to 100 uM by luminescence based BiTSA assay; format: cell-based; settings: dose 25-100 µM
[4] = system: GTPase KRas (Homo sapiens), P01116 [G12C]; assay: Binding affinity to KRAS G12C mutant (unknown origin) by traditional Western blot CETSA analysis
[5] = system: GTPase KRas (Homo sapiens), P01116 [G12C]; assay: Binding affinity to HiBiT-tagged KRAS G12C mutant in human NCI-H358 cells assessed as stabilization by measuring luminescence signal by BiTSA-ITDR assay; format: cell-based
[6] = system: Cellular tumor antigen p53 (Homo sapiens), P04637 [R273H]; assay: Binding affinity to HiBiT-tagged p53 R273H mutant in human MDA-MB-468 cells assessed as p53 refolding by measuring change in melting temperature at 2.5 to 10 uM by luminescence based BiTSA assay; format: cell-based; settings: dose 2.5-10 µM

GTPase KRas (Homo sapiens), P01116 [G12C], sequence (P01116 whole entry G12C): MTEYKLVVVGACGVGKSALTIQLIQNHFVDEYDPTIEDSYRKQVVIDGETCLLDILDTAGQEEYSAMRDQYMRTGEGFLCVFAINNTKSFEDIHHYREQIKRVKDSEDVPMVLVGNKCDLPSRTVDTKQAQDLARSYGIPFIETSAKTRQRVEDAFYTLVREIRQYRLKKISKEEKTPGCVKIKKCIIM
Mitogen-activated protein kinase 14 (Homo sapiens), sequence (Q16539 whole entry): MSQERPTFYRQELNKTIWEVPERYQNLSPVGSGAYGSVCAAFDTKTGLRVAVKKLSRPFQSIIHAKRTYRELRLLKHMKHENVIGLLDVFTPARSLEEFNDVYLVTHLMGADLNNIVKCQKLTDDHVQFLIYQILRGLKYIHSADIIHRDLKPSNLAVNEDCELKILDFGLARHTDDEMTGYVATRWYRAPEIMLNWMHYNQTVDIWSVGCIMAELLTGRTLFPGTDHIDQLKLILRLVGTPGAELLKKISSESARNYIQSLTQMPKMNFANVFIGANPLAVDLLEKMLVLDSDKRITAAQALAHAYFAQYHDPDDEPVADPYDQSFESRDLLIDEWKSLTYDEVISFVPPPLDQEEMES

## O[C@@H]1CO[C@H]2[C@@H]1OC[C@H]2Oc1nc2nc(-c3ccc(-c4ccccc4)cc3)c(Cl)cc2[nH]1
[1]
  Activity: inactive

## Cn1c(NC[C@@H](N)Cc2ccccc2)nc(-c2ccncc2)c(-c2ccc3ccccc3c2)c1=O
[2]
  Tm: 12.4 °C

## COCC1(CO)C(=O)C2CCN1CC2 (stereo unspecified)
[3]
  Activity: inactive

## C=CC(=O)N1CCN(c2ncnc3c(F)c(-c4c(O)cccc4F)c(Cl)cc23)CC1
[4]
  Activity: Active
[5]
  Activity: inactive

## CN(C)CCCNc1nc(CN2CCN(C(c3ccc(Cl)cc3)c3ccc(Cl)cc3)CC2)nc2ccccc12
[6]
  Activity: inactive
